Assay results reported in US20240325353A1, “COMPOUND FOR TREATMENT OF COGNITIVE DISORDERS” (Syndesi Therapeutics SA, priority 2021, published 2024).

System: functional connectivity of brain networks (DMN, visual network)
Experiment: resting state BOLD-fMRI functional connectivity
Assay type: in vivo, human
Conditions: post dose versus baseline
Procedure: This example describes the fMRI analysis performed in the context of the study in Example 3. Simultaneous with the dynamic PET described in example 3 above, MRI data were acquired using a resting state BOLD-fMRI (rs-fMRI) protocol. In the following section, the methodology and results of the analysis of these MRI data are presented.
Resting state BOLD-fMRI data were acquired according to the following protocol: For the analysis of the rs-fMRI scans, all data were converted to the BIDS format for processing with the CONN toolbox (release 19c).
The following preprocessing steps were performed: • Slice timing correction: Temporal misalignment between different slices of the rs-fMRI scans, due to the sequential nature of the fMRI acquisition, is corrected by applying an appropriate timeshift to match the actual acquisition time • Realignment: RS-fMRI data were realigned where all scans were coregistered to the first scan of the first session. This way, potential susceptibility distortion-by-motion interactions were also addressed by estimating the derivatives of the deformation field with respect to head movement, and resampling the functional data to match the deformation field of the reference image. • Outlier detection: Potential outlier scans were identified from the observed global BOLD signal and the amount of subject-motion in the scanner. […]

With O=C1C[C@H](c2cc(F)c(F)c(F)c2)CN1Cn1ncnc1Cl [compound of example 1, (4R)-1-[(5-chloro-1H-1,2,4-triazol-1-yl)methyl]-4-(3,4,5-trifluorophenyl)pyrrolidin-2-one] the “connectivity in the DMN (seed IC12)” value (low doses (all four individuals at 1 and 2 mg)) was “modulate and enhance connectivity in the DMN” and the “connectivity between IC18 (Visual network) and auditory network” value (relatively low occupancy levels) was “increased”.
